According to ChEMBL document CHEMBL5505996, “Discovery of novel osthole derivatives exerting anti-inflammatory effect on DSS-induced ulcerative colitis and LPS-induced acute lung injury in mice” (Eur J Med Chem, 2024):
pIC50: −log10 of the molar value. Values after ≈ are worked out from the molar mass of the structure shown. Active and inactive are the calls of the source. The calls are words filed in the database; no cut-off is given here.

Columns and labels:
[1] = tested on: J774.A1; test: Antiinflammatory activity against LPS-induced mouse J774.A1 cells assessed as inhibition of IL-6 release at 10 uM pretreated for 30 mins followed by LPS stimulation and measured after 24 hrs by ELISA relative to control; assay type: functional; settings: time 24.5 hrs
[2] = tested on: Mus musculus; test: Antiinflammatory activity against C57BL/6 mouse model of DSS induced ulcerative colitis assessed as reduction in IL-6 level in serum at 100 mg/kg, po administered daily for 10 days; assay type: functional, organism-based; settings: time 10.0 day
[3] = tested on: Mus musculus; test: Antiinflammatory activity against C57BL/6 mouse model of DSS induced ulcerative colitis assessed as reversal of weight loss at 100 mg/kg, po administered daily for 10 days; assay type: functional, organism-based; settings: time 10.0 day
[4] = tested on: Mus musculus; test: Antiinflammatory activity against C57BL/6 mouse model of DSS induced ulcerative colitis assessed as reversal of shortened intestinal length due to fecal obstruction at 100 mg/kg, po administered daily for 10 days; assay type: functional, organism-based; settings: time 10.0 day
[5] = tested on: Mus musculus; test: Antiinflammatory activity against C57BL/6 mouse model of DSS induced ulcerative colitis assessed as reduction in inflammatory cytokines infiltration in intestine at 100 mg/kg, po administered daily for 10 days by immunohistochemical staining based analysis; assay type: functional, organism-based; settings: time 10.0 day
[6] = tested on: J774.A1; test: Cytotoxicity against mouse J774.A1 cells assessed as reduction in cell proliferation at 10 uM measured after 24 hrs by CCK-8 assay; assay type: toxicity, cell-based; settings: j774.a1, 24 h
[7] = tested on: J774.A1; test: Antiinflammatory activity against LPS-induced mouse J774.A1 cells assessed as inhibition of IL-6 release at 10 uM pretreated for 30 mins followed by LPS stimulation and measured after 24 hrs by ELISA; assay type: functional, cell-based; settings: time 24.5 hrs
[8] = Aqueous solubility of compound in phosphate buffer at pH 7.4 measured after 24 hrs by HPLC analysis; assay type: physicochemical
[9] = tested on: RAW264.7; test: Antiinflammatory activity against LPS-induced mouse RAW264.7 cells assessed as inhibition of IL-6 release pretreated for 30 mins followed by LPS stimulation and measured after 24 hrs by ELISA; assay type: functional, cell-based
[10] = tested on: RAW264.7; test: Antiinflammatory activity against LPS-induced mouse RAW264.7 cells assessed as inhibition of TNF-alpha release pretreated for 30 mins followed by LPS stimulation and measured after 24 hrs by ELISA; assay type: functional, cell-based
[11] = tested on: J774.A1; test: Antiinflammatory activity against LPS-induced mouse J774.A1 cells assessed as inhibition of IL-6 release at 1.25 to 10 uM pretreated for 30 mins followed by LPS stimulation and measured after 24 hrs by ELISA; assay type: functional, cell-based; settings: dose 1.25-10 µM, time 24.5 hrs
[12] = tested on: J774.A1; test: Antiinflammatory activity against LPS-induced mouse J774.A1 cells assessed as inhibition of TNF-alpha release at 1.25 to 10 uM pretreated for 30 mins followed by LPS stimulation and measured after 24 hrs by ELISA; assay type: functional, cell-based; settings: dose 1.25-10 µM, time 24.5 hrs
[13] = tested on: THP-1; test: Antiinflammatory activity against LPS-induced PMA-differentiated human THP-1 cells assessed as inhibition of IL-6 release at 5 to 40 uM pretreated for 30 mins followed by LPS stimulation and measured after 24 hrs by ELISA; assay type: functional, cell-based; settings: dose 5-40 µM, time 24.5 hrs
[14] = tested on: THP-1; test: Antiinflammatory activity against LPS-induced PMA-differentiated human THP-1 cells assessed as inhibition of TNF-alpha release at 5 to 40 uM pretreated for 30 mins followed by LPS stimulation and measured after 24 hrs by ELISA; assay type: functional, cell-based; settings: dose 5-40 µM, time 24.5 hrs
[15] = tested on: Mus musculus; test: Antiinflammatory activity against C57BL/6 mouse model of LPS induced acute lung injury assessed as reduction in pulmonary edema by measuring reduction in lung wet/dry ratio at 20 mg/kg, po administered every 12 hrs for 3 times followed by LPS stimulation for 6 hrs starting from 30 mins post last dose; assay type: functional, organism-based; settings: time 42.5 hrs
[16] = tested on: Mus musculus; test: Antiinflammatory activity against C57BL/6 mouse model of LPS induced acute lung injury assessed as reduction in total number of cells in BALF at 20 mg/kg, po administered every 12 hrs for 3 times followed by LPS stimulation for 6 hrs starting from 30 mins post last dose; assay type: functional, organism-based; settings: time 42.5 hrs
[17] = tested on: Mus musculus; test: Antiinflammatory activity against C57BL/6 mouse model of LPS induced acute lung injury assessed as reduction in IL-6 level in BALF at 20 mg/kg, po administered every 12 hrs for 3 times followed by LPS stimulation for 6 hrs starting from 30 mins post last dose by ELISA; assay type: functional, organism-based; settings: time 42.5 hrs
[18] = tested on: Mus musculus; test: Antiinflammatory activity against C57BL/6 mouse model of LPS induced acute lung injury assessed as reduction in IL-6 level in serum at 20 mg/kg, po administered every 12 hrs for 3 times followed by LPS stimulation for 6 hrs starting from 30 mins post last dose by ELISA; assay type: functional, organism-based; settings: time 42.5 hrs
[19] = tested on: Mus musculus; test: Antiinflammatory activity against C57BL/6 mouse model of LPS induced acute lung injury assessed as reduction in IL-6 mRNA expression in lung at 20 mg/kg, po administered every 12 hrs for 3 times followed by LPS stimulation for 6 hrs starting from 30 mins post last dose by RT-qPCR analysis; assay type: functional, organism-based; settings: time 42.5 hrs
[20] = tested on: Mus musculus; test: Antiinflammatory activity against C57BL/6 mouse model of LPS induced acute lung injury assessed as reduction in TNF-alpha mRNA expression in lung at 20 mg/kg, po administered every 12 hrs for 3 times followed by LPS stimulation for 6 hrs starting from 30 mins post last dose by RT-qPCR analysis; assay type: functional, organism-based; settings: time 42.5 hrs

SMILES	inhibition at 10 µM [1]	other results
CC(C)=CCc1c(OCCN2CCCCC2)ccc2ccc(=O)oc12	10.6%	–
CC(C)=CCc1c(OCCCN2CCN(C)CC2)ccc2ccc(=O)oc12	81.9%	–
CCN1CCN(C(=O)COc2ccc3ccc(=O)oc3c2CC=C(C)C)CC1	46%	–
CC(C)=CCc1c(OCCCCN2CCN(C)CC2)ccc2ccc(=O)oc12	82.3%	–
CC(C)=CCc1c(OCCN2CCN(C)CC2)ccc2ccc(=O)oc12	69%	–
CC(C)=CCc1c(OCCCN2CCOCC2)ccc2ccc(=O)oc12	69%	–
Nc1ccc(O)c(C(=O)O)c1	–	Activity [2]: Active; Activity [3]: Active; Activity [4]: Active; Activity [5]: Active
CCN1CCN(CCCOc2ccc3ccc(=O)oc3c2CC=C(C)C)CC1	92.2%	Activity [6]: Toxic
CC(C)=CCc1c(OCC(=O)Nc2ccccc2Br)ccc2ccc(=O)oc12	88.3%	Activity [6]: Toxic
CC(C)=CCc1c(OCc2ccc(C)cc2)ccc2ccc(=O)oc12	88.7%	–
CC(C)=CCc1c(OCCN2CCCC(C)C2)ccc2ccc(=O)oc12 (centres undefined)	31.4%	–
CC(C)=CCc1c(OCCNCCN2CCOCC2)ccc2ccc(=O)oc12	46.8%	–
CC(C)=CCc1c(OCCN(C)C)ccc2ccc(=O)oc12	–	Activity [7]: inactive
CC(C)=CCc1c(OCC2CO2)ccc2ccc(=O)oc12 (centres undefined)	82.3%	–
CC(C)=CCc1c(OCC(=O)NCCCN2CCOCC2)ccc2ccc(=O)oc12	21.5%	–
CC(C)=CCc1c(OCc2cccc(F)c2)ccc2ccc(=O)oc12	68.8%	–
CC(C)=CCc1c(OCC2CC2)ccc2ccc(=O)oc12	64.2%	–
CC(C)=CCc1c(OCc2cccc(C)c2)ccc2ccc(=O)oc12	77.9%	–
CC(C)=CCc1c(OCCN2CCOCC2)ccc2ccc(=O)oc12	71.7%	–
CC(C)=CCc1c(OCC2CCCO2)ccc2ccc(=O)oc12 (centres undefined)	82.5%	–
CC(C)=CCc1c(OCC2CCCCC2)ccc2ccc(=O)oc12	88%	–
COc1ccc2ccc(=O)oc2c1CC=C(C)C [OSTHOLE]	–	solubility at 24 h [8]: 10 µg/mL (≈ 40.9 µM); pIC50 [9]: 3.84; pIC50 [10]: 3.95; Activity [11]: inactive; Activity [12]: inactive; Activity [13]: inactive; Activity [14]: inactive
CC(C)=CCc1c(OCCN2CCCC2)ccc2ccc(=O)oc12	–	Activity [7]: inactive
CC(C)=CCc1c(OCC(=O)Nc2ccccc2)ccc2ccc(=O)oc12	48.5%	–
CC(C)=CCc1c(OCCCN2CCCC2)ccc2ccc(=O)oc12	63.3%	–
COc1cccc(COc2ccc3ccc(=O)oc3c2CC=C(C)C)c1	80.2%	–
C[C@@H]1C[C@H]2[C@@H]3CCC4=CC(=O)C=C[C@]4(C)[C@@]3(F)[C@@H](O)C[C@]2(C)[C@@]1(O)C(=O)CO	–	Activity [15]: Active; Activity [16]: Active; Activity [17]: Active; Activity [18]: Active; Activity [19]: Active; Activity [20]: Active
CCN1CCN(CCOc2ccc3ccc(=O)oc3c2CC=C(C)C)CC1	88.6%	–
